Some test systems named below: A549 NSCLC; CCRF-CEM leukemia; COLO 205 colon; EKVX NSCLC; IGROV1 ovarian; K-562 leukemia; MCF7 breast; NCI-H23 lung; OVCAR-3 ovarian; OVCAR-4 ovarian; OVCAR-8 ovarian; SF-268 CNS; SF-295 CNS; SK-MEL-28 melanoma; SK-MEL-5 melanoma; SK-OV-3 ovarian; SN12C renal; SNB-19 CNS; SW-620 colon; UACC-257 melanoma.
What all share (assay): inhibition of tumour cell growth, NCI panel, 48 h

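These data come from cells grown in 96-well plates and exposed to compound for 48 hours at five concentrations. TGI denotes the concentration required for complete inhibition of growth.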

In the case of `O=c1cc[nH]c(=O)[nH]1`, the TGI in the experiment on A549 NSCLC was greater than 1000 µM; in the experiment with CCRF-CEM leukemia, greater than 950 µM; in the experiment with COLO 205 colon, 384 µM; in the experiment on EKVX NSCLC it was 488 µM; with IGROV1 ovarian, greater than 1000 µM; in the experiment on K-562 leukemia it was greater than 1000 µM. Moreover, the TGI in the experiment with MCF7 breast was greater than 1000 µM; with NCI-H23 lung, greater than 315 µM; in the experiment with OVCAR-3 ovarian, greater than 1000 µM; with OVCAR-4 ovarian, greater than 1000 µM; with OVCAR-8 ovarian, greater than 1000 µM; in the experiment on SF-268 CNS, greater than 1000 µM. Besides, the TGI in the experiment with SF-295 CNS was greater than 1000 µM; in the experiment with SK-MEL-28 melanoma, greater than 900 µM; with SK-MEL-5 melanoma, 342 µM; with SK-OV-3 ovarian, greater than 1000 µM; in the experiment with SN12C renal it was greater than 917 µM; with SNB-19 CNS, 828 µM. Moreover, the TGI in the experiment on SW-620 colon and in the experiment with UACC-257 melanoma was greater than 1000 µM in each case.
For the compound `CCOc1ncn(-c2ccc(NC(=S)Nc3ncccn3)cc2)n1`, the TGI was greater than 100 µM in the experiment on A549 NSCLC; 59.1 µM with CCRF-CEM leukemia; 81.7 µM in the experiment with COLO 205 colon; greater than 100 µM in the experiment on EKVX NSCLC; greater than 100 µM in the experiment with IGROV1 ovarian; greater than 100 µM in the experiment with K-562 leukemia. The TGI is greater than 100 µM in the experiment with MCF7 breast; greater than 100 µM in the experiment with NCI-H23 lung; greater than 100 µM in the experiment on OVCAR-3 ovarian; greater than 100 µM with OVCAR-4 ovarian; 56 µM in the experiment on OVCAR-8 ovarian; greater than 100 µM with SF-268 CNS. Moreover, the TGI in the experiment on SF-295 CNS was greater than 100 µM; in the experiment on SK-MEL-28 melanoma it was 59.8 µM; in the experiment with SK-MEL-5 melanoma, 44.9 µM; in the experiment on SK-OV-3 ovarian, greater than 100 µM; in the experiment on SN12C renal it was greater than 100 µM; in the experiment with SNB-19 CNS it was greater than 100 µM. Besides, the TGI in the experiment with SW-620 colon and in the experiment with UACC-257 melanoma was greater than 100 µM throughout.
Consider `NC(CCCCCP(=O)(c1ccccc1)C1C=CC=CC1)C(=O)O` (stereo not given), for which the TGI in the experiment on A549 NSCLC, in the experiment on CCRF-CEM leukemia, in the experiment on COLO 205 colon, in the experiment on EKVX NSCLC, in the experiment on IGROV1 ovarian and in the experiment on K-562 leukemia was greater than 100 µM each time. Further, the TGI in the experiment with MCF7 breast, in the experiment with NCI-H23 lung, in the experiment on OVCAR-3 ovarian, with OVCAR-4 ovarian, in the experiment with OVCAR-8 ovarian and in the experiment with SF-268 CNS was greater than 100 µM throughout. The TGI with SF-295 CNS, with SK-MEL-28 melanoma, in the experiment on SK-MEL-5 melanoma, in the experiment on SK-OV-3 ovarian, in the experiment on SN12C renal and in the experiment on SNB-19 CNS was greater than 100 µM in each case. Also, the TGI in the experiment on SW-620 colon and with UACC-257 melanoma was greater than 100 µM each time.
